Patent US10675260B2, “Methods and pharmaceutical compositions for preventing or treating immunoinflammatory dermal disorders” (TWi Biotechnology, Inc., priority 2017, dated 2020)

Experiments:
HaCaT cells = assay type: cell-based; conditions: 48 h, MTT
Protocol: HaCaT cells (CLS Cell Lines Service, Germany) were cultured in Dulbecco's modified eagle medium (DMEM) medium supplemented with 4.5 g/L glucose, 2 mM L-glutamine and 10% fetal bovine serum. Cells were seeded on 24- or 12-well plates and grown to 80% confluence for the following assays.
Exponentially growing cells of passage #3-6 (3000 cells/well in 100 μl medium) were plated in 96-well plates overnight to allow cell attachment (80% confluency) and then exposed to different concentrations of diacerein (0.1, 1, 10 μM) or berberine (0.1, 1, 10 μM) or clobetasol propionate (0.1, 1, 10 μM), and either 2 mg/mL of Healthy-IgG BP-IgG or Specific-IgG at 37° C. for 48 h.
Following drug treatment, the cell culture media were gently removed. Cells were then gently washed three times with warm medium to remove any de-attached and dead cells. Cells were incubated with MTT reagent in cell culture medium at a final concentration of 1.0 mg/mL for 2 h. The quantity of formazan (presumably directly proportional to the number of viable cells) was measured by recording changes in absorbance at 570 nm using an ELISA plate reader.

IL-8 mRNA = assay: Quantitation of IL-8 mRNA expression by quantitative real-time PCR; assay type: cell-based, human; conditions: BP IgG-treated HaCaT cells; 0.1, 1, 10 μM; 48 h; RT-qPCR normalized to GAPDH
Protocol: (§1) IL-6 and IL-8 messenger RNA (mRNA) levels were quantitated using quantitative real-time polymerase chain reaction (qPCR) as reported previously. BP IgG-treated HaCaT cells were cultured with or without diacerein or berberine or clobetasol propionate for 48 h. Total RNA was isolated from cultured HaCaT cells using TRIzol reagent (LifeTechnologies) according to the manufacturer's instruction. Complementary DNA (cDNA) was reverse-transcribed from isolated RNA by incubating 1 μg of RNA with the RevertAid First Strand cDNA Synthesis Kit (Thermo Scientific) following the manufacturer's instructions. Quantitative RT-PCR was performed in a Mastercycler (Eppendorf) using SYBR® Select Master Mix (Life Technologies). PCR mixtures contained 0.5 μM of each forward and reverse primers. Each reaction mixture was subjected to 2 min at 50° C. and 2 min at 95° C. followed by 40 cycles with 15 seconds at 95° C. and 1 min at 60° C. Data were normalized to the housekeeping gene glyceraldehyde-3-phosphate dehydrogenase (GAPDH). The primers used in RT-PCR were as follows: IL-8 messenger RNA (mRNA), forward, 5′-ACCGGAAGGAACCATCTCAC-3′, and reverse, 5′-AAACTGCACCTTCACACAGAG-3′ and IL-6 messenger RNA (mRNA), forward, 5′-GGTACATCCTCGACGGCATCT-3′, and reverse, 5′-GTGCCTCTTTGCTGCTTTCAC-3′ and GAPDH, forward, 5′-ACAACTTTGGTATCGTGGAAGG-3′, and reverse, 5′-GCC ATC ACG CCA CAG TTT-3′.

IL-6 mRNA = assay: Quantitation of IL-6 mRNA expression by quantitative real-time PCR; assay type: cell-based, human; conditions: BP IgG-treated HaCaT cells; 0.1, 1, 10 μM; 48 h; RT-qPCR normalized to GAPDH
Protocol: as §1

IL-6 = assay: Pro-inflammatory cytokine measurement: IL-6 in culture supernatant by ELISA; assay type: cell-based, human; conditions: HaCaT cells treated with BP-IgG or specific anti-BP180 IgG 2 mg/mL; 0.1, 1, 10 μM; 48 h
Protocol: (§2) HaCaT cells (CLS Cell Lines Service, Germany) were cultured in Dulbecco's modified eagle medium (DMEM) medium supplemented with 4.5 g/L glucose, 2 mM L-glutamine and 10% fetal bovine serum. Cells were seeded on 24- or 12-well plates and grown to 80% confluence for the following assays. Cytokine measurement was conducted based on previous studies. Briefly, cells were incubated with medium alone or with 2 mg/mL purified BP-IgG or Specific-IgG and cultured in absence or presence of diacerein or berberine or clobetasol propionate (0.1, 1, and 10 μM) and culture supernatants were collected after 48 h of incubation, and stored for analysis at −20° C. IL-6 and IL-8 levels were analyzed in cell culture supernatants by ELISA (BD Biosciences) according to the manufacturer's instructions.

IL-8 = assay: Pro-inflammatory cytokine measurement: IL-8 in culture supernatant by ELISA; assay type: cell-based, human; conditions: 48 h
Protocol: as §2

BP180 = assay: Immunofluorescence study of BP180 internalization in keratinocytes treated with BP-IgG; assay type: cell-based, human; conditions: 0.1 to 10 μM, confocal microscopy
Protocol: For this BP180 internalization study, IgG purification from BP patients and cell culture treated with different IgG and drugs (diacerein or berberine) were performed according to the procedures described in Example 1. Keratinocytes grown on glass coverslips were fixed in 4% paraformaldehyde, washed thoroughly in PBS, and permeabilized in 0.1% (v/v) Triton X-100 in PBS for 10 minutes. Primary antibodies were overlaid onto the cells, and the preparations were incubated at room temperature for 1 hour. The cells on coverslips were washed with PBS, and fluorescence-conjugated secondary antibodies were applied for 1 hour at room temperature. After being washed with PBS, coverslips were mounted onto slides. The fluorescence color for cell nucleus was dark blue and BP180 was bright green. All preparations were examined by the confocal microscopy.

Structure (SMILES)	cytotoxicity to HaCaT cells (HaCaT cells; treatment at 0.1-10 μM)	IL-8 mRNA expression levels (IL-8 mRNA)	IL-6 mRNA expression levels (IL-6 mRNA)	secretion of IL-6 (IL-6)	secretion of IL-8 (IL-8; HaCaT cells treated with BP-IgG or Specific-IgG 2 mg/mL, 0.1, 1, 10 μM)	membranous localization of BP180 (BP180 internalization) (BP180)	HaCaT viability in presence of IgG (HaCaT cells; 10 μM, with Healthy-IgG, BP-IgG or BP Specific-IgG)	HaCaT viability (HaCaT cells; treatment at 0.1-10 μM) [%]	secretion of IL-8 (IL-8; 0.1 μM, HaCaT cells treated with specific anti-BP180 IgG)	secretion of IL-8 (IL-8; 1 or 10 μM, HaCaT cells treated with specific anti-BP180 IgG)
COc1ccc2cc3[n+](cc2c1OC)CCc1cc2c(cc1-3)OCO2 [berberine, 5,6-dihydro-9,10-dimethoxybenzo(g)-1,3-benzodioxolo (5,6-a) quinolizinium]	did not have significant cytotoxicity	–	–	–	–	–	–	–	–	–
CCC(=O)O[C@]1(C(=O)CCl)[C@@H](C)C[C@H]2[C@@H]3CCC4=CC(=O)C=C[C@]4(C)[C@@]3(F)[C@@H](O)C[C@@]21C [clobetasol propionate]	did not have significant cytotoxicity	significantly reduced the IL-6 and IL-8 mRNA expression levels	significantly reduced the IL-6 and IL-8 mRNA expression levels	reduced IL-6 (FIG. 1a) and IL-8 secretion (FIG. 1b) in a dose-dependent manner	reduced IL-6 (FIG. 1a) and IL-8 secretion (FIG. 1b) in a dose-dependent manner	–	–	–	–	–
CC(=O)Oc1cccc2c1C(=O)c1c(OC(C)=O)cc(C(=O)O)cc1C2=O [diacerein, 4,5-bis (acetyloxy) 9, 10-dihydro-4,5-dihydroxy-9, 10-dioxo-2-anthracenecarboxylic acid]	significant cytotoxicity	inhibitory effects on IL-8 mRNA only at 10 μM	dose-dependent inhibitory effects on IL-6 mRNA expression levels	significantly reduced secretion of IL-6	–	membranous localization of BP180 was restored	still significantly reduced HaCaT viability	50	did not reduce the secretion of IL-8	inhibitory effects of diacerein on IL-8 secretion were noted only at concentrations at 1 or 10 μM
